Test results reported in US20070128217A1 (priority 2003, published 2007).

Assays:
[1] = system: control sera (pooled serum of ten healthy LUMC hospital workers; commercial negative donor pooled serum from the Dutch bloodbank); type: binding, human; set-up: Binding of Control serum LUMC to linear peptides / Binding of Control serum Blood-bank to linear peptides / Binding of Control serum LUMC to looped peptides / Binding of Control Serum Blood-Bank to Looped peptides / Binding of Control serum LUMC to linear peptides of the protein M of SARS-CoV Urbani / Binding of Control serum Blood-bank to linear peptides of the protein M of SARS-CoV Urbani / Binding of Control serum LUMC to looped peptides of the protein M of SARS-CoV Urbani / Binding of Control Serum Blood-Bank to Looped peptides of the protein M of SARS-CoV Urbani: unit not given here
[2] = system: rabbit serum obtained by immunizing a rabbit with the SARS-CoV strain Frankfurt 1; type: binding; set-up: Binding of a rabbit serum to linear peptides / Binding of a rabbit serum to looped peptides / Rabbit serum linear peptides / Rabbit serum looped peptides / Binding of a rabbit serum to linear peptides of protein N of SARS-CoV Urbani (Rabbit serum linear peptides) / Binding of a rabbit serum to looped/cyclic peptides of protein N of SARS-CoV Urbani (Rabbit serum looped peptides): unit not given here

NYKLNTDHAGSNDNI
Binding of Control Serum Blood-Bank to Looped peptides of the protein M of SARS-CoV Urbani [1]: 0.6 | Binding of Control serum Blood-bank to linear peptides of the protein M of SARS-CoV Urbani [1]: 0.7 | Binding of Control serum LUMC to linear peptides of the protein M of SARS-CoV Urbani [1]: 0.5 | Binding of Control serum LUMC to looped peptides of the protein M of SARS-CoV Urbani [1]: 0.8 | Rabbit serum linear peptides [2]: 0.5 | Rabbit serum looped peptides [2]: 0.0

NYSELDDEEPMELDY
Binding of Control Serum Blood-Bank to Looped peptides of the protein X3 of SARS-CoV Urbani [1]: 0.8 | Binding of Control serum Blood-bank to linear peptides of the protein X3 of SARS-CoV Urbani [1]: 0.9 | Binding of Control serum LUMC to linear peptides of the protein X3 of SARS-CoV Urbani [1]: 0.9 | Binding of Control serum LUMC to looped peptides of the protein X3 of SARS-CoV Urbani [1]: 0.9 | Rabbit serum linear peptides [2]: 0.4 | Rabbit serum looped peptides [2]: 0.3

PFHPLADNKFALTCT
Binding of Control Serum Blood-Bank to Looped peptides [1]: 0.9 | Binding of Control serum Blood-bank to linear peptides [1]: 0.7 | Binding of Control serum LUMC to linear peptides [1]: 0.8 | Binding of Control serum LUMC to looped peptides [1]: 0.9 | Rabbit serum linear peptides [2]: 0.4 | Rabbit serum looped peptides [2]: 0.4

PLADNKFALTCTSTH
Binding of Control Serum Blood-Bank to Looped peptides [1]: 0.6 | Binding of Control serum Blood-bank to linear peptides [1]: 0.8 | Binding of Control serum LUMC to linear peptides [1]: 0.5 | Binding of Control serum LUMC to looped peptides [1]: 0.7 | Rabbit serum linear peptides [2]: 1.1 | Rabbit serum looped peptides [2]: 0.0

PLTKKNYSELDDEEP
Binding of Control Serum Blood-Bank to Looped peptides of the protein X3 of SARS-CoV Urbani [1]: 0.8 | Binding of Control serum Blood-bank to linear peptides of the protein X3 of SARS-CoV Urbani [1]: 0.8 | Binding of Control serum LUMC to linear peptides of the protein X3 of SARS-CoV Urbani [1]: 0.9 | Binding of Control serum LUMC to looped peptides of the protein X3 of SARS-CoV Urbani [1]: 0.8 | Rabbit serum linear peptides [2]: 0.2 | Rabbit serum looped peptides [2]: 0.4

PSGTYEGNSPFHPLA
Binding of Control Serum Blood-Bank to Looped peptides [1]: 0.8 | Binding of Control serum Blood-bank to linear peptides [1]: 0.9 | Binding of Control serum LUMC to linear peptides [1]: 0.7 | Binding of Control serum LUMC to looped peptides [1]: 0.9 | Rabbit serum linear peptides [2]: 0.5 | Rabbit serum looped peptides [2]: 0.5

PTVYVYSRVKNLNSS
Binding of Control Serum Blood-Bank to Looped peptides [1]: 1.1 | Binding of Control serum Blood-bank to linear peptides [1]: 0.8 | Binding of Control serum LUMC to linear peptides [1]: 0.5 | Binding of Control serum LUMC to looped peptides [1]: 0.8 | Binding of a rabbit serum to linear peptides [2]: 0.7 | Binding of a rabbit serum to looped peptides [2]: 0.7

QDPAGGALIARCWYL
Binding of Control Serum Blood-Bank to Looped peptides [1]: 0.8 | Binding of Control serum Blood-bank to linear peptides [1]: 0.7 | Binding of Control serum LUMC to linear peptides [1]: 0.3 | Binding of Control serum LUMC to looped peptides [1]: 0.6 | Rabbit serum linear peptides [2]: 0.5 | Rabbit serum looped peptides [2]: 0.9

QIGGYSEDRHSGVKD
Binding of Control Serum Blood-Bank to Looped peptides [1]: 0.3 | Binding of Control serum Blood-bank to linear peptides [1]: 0.3 | Binding of Control serum LUMC to linear peptides [1]: 0.5 | Binding of Control serum LUMC to looped peptides [1]: 0.4 | Binding of a rabbit serum to linear peptides [2]: 0.1 | Binding of a rabbit serum to looped peptides [2]: 0.5

QVLKTMSLYMAISPK
Binding of Control Serum Blood-Bank to Looped peptides [1]: 0.4 | Binding of Control serum Blood-bank to linear peptides [1]: 0.9 | Binding of Control serum LUMC to linear peptides [1]: 0.7 | Binding of Control serum LUMC to looped peptides [1]: 0.4 | Binding of a rabbit serum to linear peptides [2]: 0.1 | Binding of a rabbit serum to looped peptides [2]: 0.5

RHSGVKDYVVVHGYF
Binding of Control Serum Blood-Bank to Looped peptides [1]: 0.7 | Binding of Control serum Blood-bank to linear peptides [1]: 0.6 | Binding of Control serum LUMC to linear peptides [1]: 0.5 | Binding of Control serum LUMC to looped peptides [1]: 0.6 | Binding of a rabbit serum to linear peptides [2]: 0.1 | Binding of a rabbit serum to looped peptides [2]: 0.4

RIGTQVLKTMSLYMA
Binding of Control Serum Blood-Bank to Looped peptides [1]: 0.6 | Binding of Control serum Blood-bank to linear peptides [1]: 0.8 | Binding of Control serum LUMC to linear peptides [1]: 0.5 | Binding of Control serum LUMC to looped peptides [1]: 0.5 | Binding of a rabbit serum to linear peptides [2]: 0.4 | Binding of a rabbit serum to looped peptides [2]: 0.5

RQLFKPLTKKNYSEL
Binding of Control Serum Blood-Bank to Looped peptides of the protein X3 of SARS-CoV Urbani [1]: 0.9 | Binding of Control serum Blood-bank to linear peptides of the protein X3 of SARS-CoV Urbani [1]: 0.9 | Binding of Control serum LUMC to linear peptides of the protein X3 of SARS-CoV Urbani [1]: 0.8 | Binding of Control serum LUMC to looped peptides of the protein X3 of SARS-CoV Urbani [1]: 0.7 | Rabbit serum linear peptides [2]: 0.3 | Rabbit serum looped peptides [2]: 0.5

RVKNLNSSEGVPDLL
Binding of Control Serum Blood-Bank to Looped peptides [1]: 0.7 | Binding of Control serum Blood-bank to linear peptides [1]: 1.0 | Binding of Control serum LUMC to linear peptides [1]: 1.0 | Binding of Control serum LUMC to looped peptides [1]: 1.0 | Binding of a rabbit serum to linear peptides [2]: 0.8 | Binding of a rabbit serum to looped peptides [2]: 0.6

SIVRQLFKPLTKKNY
Binding of Control Serum Blood-Bank to Looped peptides of the protein X3 of SARS-CoV Urbani [1]: 0.8 | Binding of Control serum Blood-bank to linear peptides of the protein X3 of SARS-CoV Urbani [1]: 0.8 | Binding of Control serum LUMC to linear peptides of the protein X3 of SARS-CoV Urbani [1]: 0.7 | Binding of Control serum LUMC to looped peptides of the protein X3 of SARS-CoV Urbani [1]: 0.8 | Rabbit serum linear peptides [2]: 0.3 | Rabbit serum looped peptides [2]: 0.4

SLVKPTVYVYSRVKN
Binding of Control Serum Blood-Bank to Looped peptides [1]: 0.7 | Binding of Control serum Blood-bank to linear peptides [1]: 0.7 | Binding of Control serum LUMC to linear peptides [1]: 1.0 | Binding of Control serum LUMC to looped peptides [1]: 0.8 | Binding of a rabbit serum to linear peptides [2]: 0.3 | Binding of a rabbit serum to looped peptides [2]: 0.6

SSGVANPAMDPIYDE
Binding of Control Serum Blood-Bank to Looped peptides [1]: 0.7 | Binding of Control serum Blood-bank to linear peptides [1]: 0.5 | Binding of Control serum LUMC to linear peptides [1]: 0.5 | Binding of Control serum LUMC to looped peptides [1]: 0.7 | Binding of a rabbit serum to linear peptides [2]: 0.1 | Binding of a rabbit serum to looped peptides [2]: 0.6

SSIVRQLFKPLTKKN
Binding of Control Serum Blood-Bank to Looped peptides of the protein X3 of SARS-CoV Urbani [1]: 0.8 | Binding of Control serum Blood-bank to linear peptides of the protein X3 of SARS-CoV Urbani [1]: 1.2 | Binding of Control serum LUMC to linear peptides of the protein X3 of SARS-CoV Urbani [1]: 1.1 | Binding of Control serum LUMC to looped peptides of the protein X3 of SARS-CoV Urbani [1]: 0.7 | Rabbit serum linear peptides [2]: 0.4 | Rabbit serum looped peptides [2]: 0.5

SYYKLGASQRVGTDS
Binding of Control Serum Blood-Bank to Looped peptides of the protein M of SARS-CoV Urbani [1]: 0.8 | Binding of Control serum Blood-bank to linear peptides of the protein M of SARS-CoV Urbani [1]: 0.8 | Binding of Control serum LUMC to linear peptides of the protein M of SARS-CoV Urbani [1]: 0.4 | Binding of Control serum LUMC to looped peptides of the protein M of SARS-CoV Urbani [1]: 0.7 | Rabbit serum linear peptides [2]: 0.4 | Rabbit serum looped peptides [2]: 0.3

TAQPVKIDNASPAST
Binding of Control Serum Blood-Bank to Looped peptides [1]: 0.5 | Binding of Control serum Blood-bank to linear peptides [1]: 0.7 | Binding of Control serum LUMC to linear peptides [1]: 0.6 | Binding of Control serum LUMC to looped peptides [1]: 0.6 | Binding of a rabbit serum to linear peptides [2]: 0.1 | Binding of a rabbit serum to looped peptides [2]: 0.4

TGGIAIAMACIVGLM
Binding of Control Serum Blood-Bank to Looped peptides of the protein M of SARS-CoV Urbani [1]: 1.1 | Binding of Control serum Blood-bank to linear peptides of the protein M of SARS-CoV Urbani [1]: 1.1 | Binding of Control serum LUMC to linear peptides of the protein M of SARS-CoV Urbani [1]: 0.6 | Binding of Control serum LUMC to looped peptides of the protein M of SARS-CoV Urbani [1]: 1.1 | Rabbit serum linear peptides [2]: 0.5 | Rabbit serum looped peptides [2]: 0.3

THNYDYCIPYNSVTD
Binding of Control Serum Blood-Bank to Looped peptides [1]: 0.7 | Binding of Control serum Blood-bank to linear peptides [1]: 0.5 | Binding of Control serum LUMC to linear peptides [1]: 0.6 | Binding of Control serum LUMC to looped peptides [1]: 0.7 | Binding of a rabbit serum to linear peptides [2]: 0.1 | Binding of a rabbit serum to looped peptides [2]: 0.6

TKKNYSELDDEEPME
Binding of Control Serum Blood-Bank to Looped peptides of the protein X3 of SARS-CoV Urbani [1]: 0.4 | Binding of Control serum Blood-bank to linear peptides of the protein X3 of SARS-CoV Urbani [1]: 0.8 | Binding of Control serum LUMC to linear peptides of the protein X3 of SARS-CoV Urbani [1]: 0.4 | Binding of Control serum LUMC to looped peptides of the protein X3 of SARS-CoV Urbani [1]: 0.9 | Rabbit serum linear peptides [2]: 0.2 | Rabbit serum looped peptides [2]: 0.1

TKLVVILRIGTQVLK
Binding of Control Serum Blood-Bank to Looped peptides [1]: 0.6 | Binding of Control serum Blood-bank to linear peptides [1]: 0.7 | Binding of Control serum LUMC to linear peptides [1]: 0.5 | Binding of Control serum LUMC to looped peptides [1]: 0.7 | Binding of a rabbit serum to linear peptides [2]: 0.3 | Binding of a rabbit serum to looped peptides [2]: 0.6
